How the values were obtained:
Test in all cases: Test E pre-/postemergence greenhouse test, plant response rating 0-100
Type in all cases: in vivo
[1] = test system: Brazilian crabgrass (Digitaria horizontalis); settings: Preemergence, scale 0 to 100
In short: (§1)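 Seeds sown in silt loam soil received preemergence treatment with compound in a non-phytotoxic solvent mixture containing surfactant. Postemergence, plants at 2–18 cm (1- to 4-leaf stage) in peat/vermiculite medium were sprayed with the same formulation. Visual injury versus untreated controls was rated 0–100 after 14 to 21 days in the greenhouse.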

[2] = test system: Italian ryegrass (Lolium multiflorum); settings: Preemergence, scale 0 to 100
In short: as §1

[3] = test system: arrowleaf sida (Sida rhombifolia); settings: scale 0 to 100; for Arrowleaf Sida plant response rating: Preemergence
In short: as §1

[4] = test system: barnyardgrass (Echinochloa crus-galli); settings: Preemergence, scale 0 to 100
In short: as §1

[5] = test system: corn (Zea mays); settings: Preemergence, scale 0 to 100
In short: as §1

[6] = test system: dayflower (Virginia (VA) dayflower, Commelina virginica); settings: Preemergence, scale 0 to 100
In short: as §1

[7] = test system: field bindweed (Convolvulus arvensis); settings: Preemergence, scale 0 to 100
In short: as §1

[8] = test system: hairy beggarticks (Bidens pilosa); settings: scale 0 to 100; for Beggarticks plant response rating: Preemergence
In short: as §1

[9] = test system: palmer pigweed (Amaranthus palmeri); settings: scale 0 to 100; for Pigweed, Palmer plant response rating: Preemergence
In short: as §1

[10] = test system: sandbur (southern sandbur, Cenchrus echinatus); settings: Preemergence, scale 0 to 100
In short: as §1

[11] = test system: waterhemp (common waterhemp, Amaranthus rudis); settings: scale 0 to 100; for Waterhemp plant response rating: Preemergence
In short: as §1

[12] = test system: wild poinsettia (Euphorbia heterophylla); settings: Preemergence, scale 0 to 100
In short: as §1

## CCn1cc(C(=O)c2ccccc2)c(-c2cc(Cl)cc(Cl)c2)n1 [Compound 31, [3-(3,5-dichlorophenyl)-1-ethyl-1H-pyrazol-4-yl]phenylmethanone]
[1]; 62 g ai/ha
  Crabgrass, Brazil plant response rating: 0
[1]; 125 g ai/ha
  Crabgrass, Brazil plant response rating: 0
[1]; 250 g ai/ha
  Crabgrass, Brazil plant response rating: 0
[1]; 500 g ai/ha
  Crabgrass, Brazil plant response rating: 50
[2]; 62 g ai/ha
  Ryegrass, Italian plant response rating: 0
[2]; 125 g ai/ha
  Ryegrass, Italian plant response rating: 0
[2]; 250 g ai/ha
  Ryegrass, Italian plant response rating: 0
[2]; 500 g ai/ha
  Ryegrass, Italian plant response rating: 0
[3]; 62 g ai/ha
  Arrowleaf Sida plant response rating: 30
[3]; 125 g ai/ha
  Arrowleaf Sida plant response rating: 80
[3]; 250 g ai/ha
  Arrowleaf Sida plant response rating: 90
[3]; 500 g ai/ha
  Arrowleaf Sida plant response rating: 95
[3]; Sida rhombifolia, post-emergence, Postemergence, 16 g ai/ha
  pest or weed control at 16 g/ha: 55%
[3]; Sida rhombifolia, post-emergence, Postemergence, 31 g ai/ha
  pest or weed control at 31 g/ha: 65%
[3]; Sida rhombifolia, post-emergence, Postemergence, 62 g ai/ha
  pest or weed control at 62 g/ha: 80%
[3]; Sida rhombifolia, post-emergence, Postemergence, 125 g ai/ha
  pest or weed control at 125 g/ha: 90%
[4]; 62 g ai/ha
  Barnyardgrass plant response rating: 0
[4]; 125 g ai/ha
  Barnyardgrass plant response rating: 0
[4]; 250 g ai/ha
  Barnyardgrass plant response rating: 0
[4]; 500 g ai/ha
  Barnyardgrass plant response rating: 0
[5]; 62 g ai/ha
  Corn plant response rating: 0
[5]; 125 g ai/ha
  Corn plant response rating: 0
[5]; 250 g ai/ha
  Corn plant response rating: 0
[5]; 500 g ai/ha
  Corn plant response rating: 0
[6]; 62 g ai/ha
  Dayflower, VA plant response rating: 0
[6]; 125 g ai/ha
  Dayflower, VA plant response rating: 0
[6]; 250 g ai/ha
  Dayflower, VA plant response rating: 0
[6]; 500 g ai/ha
  Dayflower, VA plant response rating: 0
[7]; 62 g ai/ha
  Field Bindweed plant response rating: 0
[7]; 125 g ai/ha
  Field Bindweed plant response rating: 0
[7]; 250 g ai/ha
  Field Bindweed plant response rating: 0
[7]; 500 g ai/ha
  Field Bindweed plant response rating: 0
[8]; Bidens pilosa, post-emergence, Postemergence, 16 g ai/ha
  pest or weed control at 16 g/ha: 70%
[8]; Bidens pilosa, post-emergence, Postemergence, 31 g ai/ha
  pest or weed control at 31 g/ha: 80%
[8]; Bidens pilosa, post-emergence, Postemergence, 62 g ai/ha
  pest or weed control at 62 g/ha: 85%
[8]; Bidens pilosa, post-emergence, Postemergence, 125 g ai/ha
  pest or weed control at 125 g/ha: 85%
[8]; 62 g ai/ha
  Beggarticks plant response rating: 0
[8]; 125 g ai/ha
  Beggarticks plant response rating: 0
[8]; 250 g ai/ha
  Beggarticks plant response rating: 0
[8]; 500 g ai/ha
  Beggarticks plant response rating: 50
[9]; Amaranthus palmeri, post-emergence, Postemergence, 62 g ai/ha
  pest or weed control at 62 g/ha: 60%
[9]; Amaranthus palmeri, post-emergence, Postemergence, 125 g ai/ha
  pest or weed control at 125 g/ha: 75%
[9]; 62 g ai/ha
  Pigweed, Palmer plant response rating: 0
[9]; 125 g ai/ha
  Pigweed, Palmer plant response rating: 70
[9]; 250 g ai/ha
  Pigweed, Palmer plant response rating: 98
[9]; 500 g ai/ha
  Pigweed, Palmer plant response rating: 100
[10]; 62 g ai/ha
  Sandbur plant response rating: 0
[10]; 125 g ai/ha
  Sandbur plant response rating: 0
[10]; 250 g ai/ha
  Sandbur plant response rating: 0
[10]; 500 g ai/ha
  Sandbur plant response rating: 0
[11]; Amaranthus tuberculatus, post-emergence, Postemergence, 31 g ai/ha
  pest or weed control at 31 g/ha: 50%
[11]; Amaranthus tuberculatus, post-emergence, Postemergence, 125 g ai/ha
  pest or weed control at 125 g/ha: 60%
[11]; 62 g ai/ha
  Waterhemp plant response rating: 80
[11]; 125 g ai/ha
  Waterhemp plant response rating: 90
[11]; 250 g ai/ha
  Waterhemp plant response rating: 100
[11]; 500 g ai/ha
  Waterhemp plant response rating: 100
[12]; 62 g ai/ha
  Poinsettia, Wild plant response rating: 0
[12]; 125 g ai/ha
  Poinsettia, Wild plant response rating: 0
[12]; 250 g ai/ha
  Poinsettia, Wild plant response rating: 0
[12]; 500 g ai/ha
  Poinsettia, Wild plant response rating: 0

From US10167262B2, “Herbicidal substituted 3-arylpyrazoles” (FMC CORPORATION, priority 2014, dated 2019)
